Measured values reported in US8691799B2, “Materials and methods for treatment of cancer and identification of anti-cancer compounds” (priority 2001, dated 2014).

Experiments:
Type in all cases: biochemical
JAK2 = target: T1, JAK2 (Homo sapiens, UniProt O60674); assay: JAK kinase autophosphorylation assay on immunoprecipitates (JAK2); conditions: immunoprecipitates from A549, MDA-MB-468 or v-Src/NIH 3T3 cells; AG490 100 μM, PD180970 2 μM
T1 construct: Src, JAK1, and JAK2 were immunoprecipitated from either A549, MDA-MB-468, or v-Src/NIH 3T3 cells; endogenous in cells; host or cells: A549, MDA-MB-468, v-Src transformed NIH 3T3 (immunoprecipitates)
Protocol: (§1) JAK Kinase Assays. A549, MDA-MB-468, and v-Src transformed NIH 3T3 cells were harvested, washed three times in PBS-V (10 mM sodium phosphate, pH 7.4, 137 mM NaCl, 1 mM sodium orthovanadate) then lysed for 30 min on ice in JAK kinase lysis buffer (25 mM Hepes, pH 7.4, 0.1% Triton-X-100, 0.5 mM DTT, 1 mM sodium orthovanadate, 1 mM PMSF, 10 μg/ml aprotinin, 10 μg/ml leupeptin). Samples were spun at high speed to clear, and 800-1000 μg of protein was immunoprecipitated per treatment condition with 50 ng of either JAK1 or JAK2 antibody (Santa Cruz Biotechnology) rocking overnight at 4° C. 25 μl of protein A/G PLUS agarose then was added and rocking continued for 1 hr at 4° C. Samples were spun to collect agarose pellet, and pellet washed twice in wash buffer (50 mM Hepes, pH 7.4, 0.1% Triton-X-100, 0.5 mM DTT, 150 mM NaCl) and once in phosphorylation buffer (50 mM Hepes, pH 7.4, 0.1% Triton-X-100, 0.5 mM DTI, 6.25 mM manganese chloride, 100 mM NaCl). Kinase reactions were performed at 30° C. for 15 min in a final volume of 100 μl of phosphorylation buffer. Samples were pretreated with DMSO control, JSI-124, and control compounds (AG490, 100 μM, and […], 2 μM) before addition of 20 μCi/sample y-[^32P]ATP. Reaction was halted using stop buffer (wash buffer plus 10 mM EDTA), samples spun to collect pellet, then pellet washed once with stop buffer and twice with wash buffer. Samples were then placed in 2×SDS-PAGE sample buffer, boiled at 100° C., and run on 8% SDS-PAGE gels to separate proteins. Autophosphorylation results were visualized by autoradiography.

Src = Src kinase autophosphorylation assay on immunoprecipitates; conditions: immunoprecipitates from A549, MDA-MB-468 or v-Src/NIH 3T3 cells
Protocol: Src Kinase Assay. A549, MDA-MB-468, and v-Src cells were harvested and lysed for 30 min on ice in RIPA150 buffer (10 mM Tris, pH 7.5, 150 mM NaCl, 10% glycerol, 5 mM EDTA, 1% Triton-X-100, 0.1% SDS, 100 μM sodium orthovanadate, 10 μg/ml aprotinin, 10 μg/ml leupeptin, 1 μg/ml antipain). Samples were spun at high speed to clear, then 1000 μg of protein were immunoprecipitated per treatment condition with 2 μg v-Src antibody (Ab-1, Oncogene Research Products, San Diego, Calif.) rocking overnight at 4° C. 25 μl of protein A/G PLUS agarose then was added and rocking continued for 4 hr at 4° C. Samples were spun to collect agarose pellet, and pellet washed three times in RIPA150 buffer, twice in RIPA10 buffer (10 mM Tris, pH 7.5, 10 mM NaCl, 10% glycerol, 5 mM EDTA, 1% Triton-X-100, 0.1% SDS, 100 μM sodium orthovanadate 10 μg/ml aprotinin, 10 μg/ml leupeptin, 1 μg/ml antipain), and three times in 40 mM Tris, pH 7.4. Pellet was then resuspended in 30 μl kinase reaction buffer (20 mM Tris, pH 7.4, 5 mM MgCl2) containing 10 μCi γ-[^32P]ATP. Inhibitors were preincubated for several minutes before the addition of the ATP. Kinase reactions were carried out at room temperature for 15 min. Reaction was stopped with the addition of 2×SDS-PAGE sample buffer. Samples were boiled and run on 10% SDS-PAGE gels. Autophosphorylation results were visualized by autoradiography.

JAK1 = assay: JAK kinase autophosphorylation assay on immunoprecipitates (JAK1); conditions: immunoprecipitates from MDA-MB-468 or v-Src/NIH 3T3 cells; AG490 100 μM, PD180970 2 μM
Protocol: as §1

T1 sequence (O60674 whole entry): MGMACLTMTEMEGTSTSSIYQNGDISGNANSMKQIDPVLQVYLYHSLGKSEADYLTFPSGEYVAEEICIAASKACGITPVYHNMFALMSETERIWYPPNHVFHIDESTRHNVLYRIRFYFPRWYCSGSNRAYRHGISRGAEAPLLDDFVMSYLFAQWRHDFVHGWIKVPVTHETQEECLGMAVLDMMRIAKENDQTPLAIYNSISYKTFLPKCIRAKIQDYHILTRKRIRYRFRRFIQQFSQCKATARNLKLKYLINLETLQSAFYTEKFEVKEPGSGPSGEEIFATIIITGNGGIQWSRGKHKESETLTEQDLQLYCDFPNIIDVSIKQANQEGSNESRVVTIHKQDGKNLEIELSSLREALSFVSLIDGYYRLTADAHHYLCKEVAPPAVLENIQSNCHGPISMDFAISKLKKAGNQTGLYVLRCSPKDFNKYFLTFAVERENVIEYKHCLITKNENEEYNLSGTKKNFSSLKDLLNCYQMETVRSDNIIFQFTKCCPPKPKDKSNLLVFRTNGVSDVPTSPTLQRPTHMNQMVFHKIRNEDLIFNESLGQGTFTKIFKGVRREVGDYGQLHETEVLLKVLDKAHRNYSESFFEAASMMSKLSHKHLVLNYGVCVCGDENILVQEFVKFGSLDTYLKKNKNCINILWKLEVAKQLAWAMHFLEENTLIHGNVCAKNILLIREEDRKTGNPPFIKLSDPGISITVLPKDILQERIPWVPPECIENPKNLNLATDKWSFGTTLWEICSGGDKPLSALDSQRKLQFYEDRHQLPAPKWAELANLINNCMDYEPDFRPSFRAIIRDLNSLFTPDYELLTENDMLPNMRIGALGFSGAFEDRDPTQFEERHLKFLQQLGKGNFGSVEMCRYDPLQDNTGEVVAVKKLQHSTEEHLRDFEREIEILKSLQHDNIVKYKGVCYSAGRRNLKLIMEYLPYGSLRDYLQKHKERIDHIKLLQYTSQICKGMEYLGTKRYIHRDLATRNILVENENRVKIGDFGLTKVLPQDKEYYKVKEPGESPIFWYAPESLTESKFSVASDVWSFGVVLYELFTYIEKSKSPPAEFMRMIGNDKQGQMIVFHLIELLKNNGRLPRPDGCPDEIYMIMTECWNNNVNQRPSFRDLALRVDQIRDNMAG

Row | Structure (SMILES) | JAK2 kinase activity (autophosphorylation) in vitro (JAK2) | Src kinase activity (autophosphorylation) in vitro (Src) | JAK1 kinase activity (autophosphorylation) in vitro (JAK1)
1 | N#C/C(=C/c1ccc(O)c(O)c1)C(=O)NCc1ccccc1 [AG490] | inhibited JAK1 and JAK2 | not Src kinase activities | inhibited JAK1 and JAK2
2 | Cc1cc(Nc2ncc3cc(-c4c(Cl)cccc4Cl)c(=O)n(C)c3n2)ccc1F [PD180970] | not JAK1 or JAK2 activities | inhibits Src | not JAK1 or JAK2 activities
